SMILES strings stand for the structures.

Results on 15 compounds are retold here after patent publication US20140073700A1, “[…] ACID DERIVATIVES AND METHODS OF USE THEREOF” (AbbVie Inc., priority 2012, published 2014).

This assay concerns IFNγ-Induced NO Production in RAW 264.7 cells. The assay is described as follows: Nitric Oxide Suppression Assay (suppression of IFNγ-induced NO production). It is filed as cell-based. The following applies: RAW264.7; RAW 264.7 mouse macrophage cells, 20 ng/mL interferon gamma, Griess detection; single curve fit to mean data of n=2-3. On the procedure: RAW 264.7, a mouse macrophage cell line, was obtained from American Type Culture Collection (Manassas Va.) and maintained in the log phase of growth in Dulbecco's Modified Eagle's Medium (DMEM), 10% heat inactivated fetal calf serum and 100 units/mL antibiotic-antimycotic (AA). Cells were cultured and maintained in a humidified incubator at 37° C. under 5% CO2 and 95% air. Cells were sub-cultured every 3 days by scraping and were not used beyond passage 20. All cell culture supplies were obtained from Life Technologies (Grand Island, N.Y.).
RAW 264.7 cells were plated 1 day in advance of experiment at a concentration of 80,000 cells/well onto CellBIND® 96 well plates (Corning, N.Y.) in a total volume of 100 μL. The next day, pre-treat cells with compounds (from 3 μM to 0.3 nM serially diluted in a 10 point curve) from a 10× stock by adding 10 μL per well in complete DMEM media containing 10% fetal calf serum. The plates were centrifuged for 3 minutes at 400×g at room temperature followed by 2 hour incubation at 37° C. The cells were then incubated overnight at 37° C. with 10 μL of the insult, interferon gamma (R&D Systems, Minneapolis, Minn.), from a 10× stock for a final concentration of 20 ng/mL. The plates were centrifuged for 3 minutes at 400×g at room temperature followed by 18 hour incubation at 37° C. The following day, transfer 50 μL cell culture supernatant from each well into a clear bottom 96 well plate and follow the instructions from Promega's Griess Detection Kit #G2930 (Madison, Wis.) which involves the addition of 50 μL of the provided sulfanilamide solution for a 5-10 minute incubation at room temperature. Next add 50 μL of the provided N-1-napthylethylenediamine dihydrochloride (NED) solution for a 5-10 minute incubation at room temperature and protected from light. If any air bubbles were introduced into the well, the plates need to be centrifuged for 5 minutes at 400×g at room temperature to avoid interference with absorbance readings. The plates were read for absorbance within 30 minutes with a filter between 520 nm and 550 nm.
For the ability of compounds to suppress the increase in nitric oxide release, the percent maximal intensity of nitric oxide detected in each well was normalized to that induced by the peak value for 20 ng/mL of interferon gamma alone and plotted against the compound concentration to calculate IC50 values and to control for plate-to-plate variability. Concentration-response data were analyzed using GraphPad Prism (San Diego, Calif.); the IC50 values were derived from a single curve fit to the mean data of n=2-3, in duplicates.
All compounds were dissolved in dimethyl sulfoxide at 10 mM stock solutions and tested at a concentration that the dimethyl sulfoxide levels never exceeded 1%.
In general terms: Nitrite, measured by Griess reagent, commonly stands in for NO production.

The IC50 is the concentration that inhibits the measured activity by half. Read a low IC50 as higher potency. `CC1(C)C(=O)C(C#N)=C[C@]2(C)C3=CC(=O)[C@]4(O)[C@@H]5C[C@@](C)(C(=O)n6ccnc6)CC[C@]5(C)CC[C@@]4(C)[C@]3(C)CC[C@@H]12` [Example 15, (4aR,6aR,6bS,8aS,11S,12aR,12bS,14bS)-12b-hydroxy-11-(1H-imidazol-1-ylcarbonyl)-4,4,6a,6b,8a,11,14b-heptamethyl-3,13-dioxo-3,4,4a,5,6,6a,6b,7,8,8a,9,10,11,12,12a,12b,13,14b-octadecahydropicene-2-carbonitrile] displayed an IC50 of 269 nM.

For `COCCNC(=O)[C@@]1(C)CC[C@]2(C)CC[C@@]3(C)[C@]4(C)CC[C@H]5C(C)(C)C(=O)C(C#N)=C[C@]5(C)C4=CC(=O)[C@]3(O)[C@@H]2C1` [Example 16, (2S,4aS,6aS,6bR,8aR,12aS,14aS,14bR)-11-cyano-14a-hydroxy-N-(2-methoxyethyl)-2,4a,6a,6b,9,9,12a-heptamethyl-10,14-dioxo-1,2,3,4,4a,5,6,6a,6b,7,8,8a,9,10,12a,14,14a,14b-octadecahydropicene-2-carboxamide], the IC50 came out at 8.6 nM.

Compound `CC(C)CCNC(=O)[C@@]1(C)CC[C@]2(C)CC[C@@]3(C)[C@]4(C)CC[C@H]5C(C)(C)C(=O)C(C#N)=C[C@]5(C)C4=CC(=O)[C@]3(O)[C@@H]2C1` [Example 17, (2S,4aS,6aS,6bR,8aR,12aS,14aS,14bR)-11-cyano-14a-hydroxy-2,4a,6a,6b,9,9,12a-heptamethyl-N-(3-methylbutyl)-10,14-dioxo-1,2,3,4,4a,5,6,6a,6b,7,8,8a,9,10,12a,14,14a,14b-octadecahydropicene-2-carboxamide] registered an IC50 of 24 nM.

In turn, `CC1(C)C(=O)C(C#N)=C[C@]2(C)C3=CC(=O)[C@]4(O)[C@@H]5C[C@@](C)(C(=O)NC6CCOCC6)CC[C@]5(C)CC[C@@]4(C)[C@]3(C)CC[C@@H]12` [Example 18, (2S,4aS,6aS,6bR,8aR,12aS,14aS,14bR)-11-cyano-14a-hydroxy-2,4a,6a,6b,9,9,12a-heptamethyl-10,14-dioxo-N-(tetrahydro-2H-pyran-4-yl)-1,2,3,4,4a,5,6,6a,6b,7,8,8a,9,10,12a,14,14a,14b-octadecahydropicene-2-carboxamide] showed an IC50 of 17.1 nM. The IC50 values of the last two compounds are within 1.5-fold of each other.

Consider `CC(O)CNC(=O)[C@@]1(C)CC[C@]2(C)CC[C@@]3(C)[C@]4(C)CC[C@H]5C(C)(C)C(=O)C(C#N)=C[C@]5(C)C4=CC(=O)[C@]3(O)[C@@H]2C1` (stereo partly drawn) [Example 19, (2S,4aS,6aS,6bR,8aR,12aS,14aS,14bR)-11-cyano-14a-hydroxy-N-(2-hydroxypropyl)-2,4a,6a,6b,9,9,12a-heptamethyl-10,14-dioxo-1,2,3,4,4a,5,6,6a,6b,7,8,8a,9,10,12a,14,14a,14b-octadecahydropicene-2-carboxamide], for which the IC50 worked out at 67.9 nM.

`C[C@H](NC(=O)[C@@]1(C)CC[C@]2(C)CC[C@@]3(C)[C@]4(C)CC[C@H]5C(C)(C)C(=O)C(C#N)=C[C@]5(C)C4=CC(=O)[C@]3(O)[C@@H]2C1)c1ccccc1` [Example 20, (2S,4aS,6aS,6bR,8aR,12aS,14aS,14bR)-11-cyano-14a-hydroxy-2,4a,6a,6b,9,9,12a-heptamethyl-10,14-dioxo-N-[(1S)-1-phenylethyl]-1,2,3,4,4a,5,6,6a,6b,7,8,8a,9,10,12a,14,14a,14b-octadecahydropicene-2-carboxamide] yielded an IC50 of 38.6 nM.

In turn, `CC1(C)C(=O)C(C#N)=C[C@]2(C)C3=CC(=O)[C@]4(O)[C@@H]5C[C@@](C)(C(=O)NC6CCCCC6)CC[C@]5(C)CC[C@@]4(C)[C@]3(C)CC[C@@H]12` [Example 21, (2S,4aS,6aS,6bR,8aR,12aS,14aS,14bR)-11-cyano-N-cyclohexyl-14a-hydroxy-2,4a,6a,6b,9,9,12a-heptamethyl-10,14-dioxo-1,2,3,4,4a,5,6,6a,6b,7,8,8a,9,10,12a,14,14a,14b-octadecahydropicene-2-carboxamide] returned a 50% inhibitory concentration (IC50) of 9.7 nM.

For `CC1(C)C(=O)C(C#N)=C[C@]2(C)C3=CC(=O)[C@]4(O)[C@@H]5C[C@@](C)(C(=O)NCc6ccccc6)CC[C@]5(C)CC[C@@]4(C)[C@]3(C)CC[C@@H]12` [Example 22, (2S,4aS,6aS,6bR,8aR,12aS,14aS,14bR)—N-benzyl-11-cyano-14a-hydroxy-2,4a,6a,6b,9,9,12a-heptamethyl-10,14-dioxo-1,2,3,4,4a,5,6,6a,6b,7,8,8a,9,10,12a,14,14a,14b-octadecahydropicene-2-carboxamide], the IC50 was determined as 27.1 nM. This IC50 is about 2.8-fold higher than that of the compound before.

On to `COCC(COC)NC(=O)[C@@]1(C)CC[C@]2(C)CC[C@@]3(C)[C@]4(C)CC[C@H]5C(C)(C)C(=O)C(C#N)=C[C@]5(C)C4=CC(=O)[C@]3(O)[C@@H]2C1` [Example 23, (2S,4aS,6aS,6bR,8aR,12aS,14aS,14bR)-11-cyano-N-(1,3-dimethoxypropan-2-yl)-14a-hydroxy-2,4a,6a,6b,9,9,12a-heptamethyl-10,14-dioxo-1,2,3,4,4a,5,6,6a,6b,7,8,8a,9,10,12a,14,14a,14b-octadecahydropicene-2-carboxamide], for which inhibition was half-maximal at 10.8 nM (IC50).

Compound `COC(=O)[C@@H]1CCCN1C(=O)[C@@]1(C)CC[C@]2(C)CC[C@@]3(C)[C@]4(C)CC[C@H]5C(C)(C)C(=O)C(C#N)=C[C@]5(C)C4=CC(=O)[C@]3(O)[C@@H]2C1` [Example 24, methyl 1-{[(2S,4aS,6aS,6bR,8aR,12aS,14aS,14bR)-11-cyano-14a-hydroxy-2,4a,6a,6b,9,9,12a-heptamethyl-10,14-dioxo-1,2,3,4,4a,5,6,6a,6b,7,8,8a,9,10,12a,14,14a,14b-octadecahydropicen-2-yl]carbonyl}prolinate] gave a half-inhibitory concentration (IC50) of 16.6 nM.

`CCCNC(=O)[C@@]1(C)CC[C@]2(C)CC[C@@]3(C)[C@]4(C)CC[C@H]5C(C)(C)C(=O)C(C#N)=C[C@]5(C)C4=CC(=O)[C@]3(O)[C@@H]2C1` [Example 25, (2S,4aS,6aS,6bR,8aR,12aS,14aS,14bR)-11-cyano-14a-hydroxy-2,4a,6a,6b,9,9,12a-heptamethyl-10,14-dioxo-N-propyl-1,2,3,4,4a,5,6,6a,6b,7,8,8a,9,10,12a,14,14a,14b-octadecahydropicene-2-carboxamide] showed an IC50 of 7.8 nM. This IC50 is about 2.1-fold lower than that of the compound before.

The compound `CC1(C)C(=O)C(C#N)=C[C@]2(C)C3=CC(=O)[C@]4(O)[C@@H]5C[C@@](C)(C(=O)NCc6ccco6)CC[C@]5(C)CC[C@@]4(C)[C@]3(C)CC[C@@H]12` [Example 26, (2S,4aS,6aS,6bR,8aR,12aS,14aS,14bR)-11-cyano-N-(2-furylmethyl)-14a-hydroxy-2,4a,6a,6b,9,9,12a-heptamethyl-10,14-dioxo-1,2,3,4,4a,5,6,6a,6b,7,8,8a,9,10,12a,14,14a,14b-octadecahydropicene-2-carboxamide] returned an IC50 of 10.2 nM. This IC50 and that of the compound before are within 1.5-fold of each other.

`COc1ccc(NC(=O)[C@@]2(C)CC[C@]3(C)CC[C@@]4(C)[C@]5(C)CC[C@H]6C(C)(C)C(=O)C(C#N)=C[C@]6(C)C5=CC(=O)[C@]4(O)[C@@H]3C2)cc1` [Example 27, (2S,4aS,6aS,6bR,8aR,12aS,14aS,14bR)-11-cyano-14a-hydroxy-N-(4-methoxyphenyl)-2,4a,6a,6b,9,9,12a-heptamethyl-10,14-dioxo-1,2,3,4,4a,5,6,6a,6b,7,8,8a,9,10,12a,14,14a,14b-octadecahydropicene-2-carboxamide]: the midpoint of inhibition, the IC50, lay at 13.6 nM.

As for `COCCN(C)C(=O)[C@@]1(C)CC[C@]2(C)CC[C@@]3(C)[C@]4(C)CC[C@H]5C(C)(C)C(=O)C(C#N)=C[C@]5(C)C4=CC(=O)[C@]3(O)[C@@H]2C1` [Example 28, (2S,4aS,6aS,6bR,8aR,12aS,14aS,14bR)-11-cyano-14a-hydroxy-N-(2-methoxyethyl)-N,2,4a,6a,6b,9,9,12a-octamethyl-10,14-dioxo-1,2,3,4,4a,5,6,6a,6b,7,8,8a,9,10,12a,14,14a,14b-octadecahydropicene-2-carboxamide], the half-inhibitory concentration (IC50) turned out to be 17.4 nM.

In turn, `CC1(C)C(=O)C(C#N)=C[C@]2(C)C3=CC(=O)[C@]4(O)[C@@H]5C[C@@](C)(C(=O)NCC#N)CC[C@]5(C)CC[C@@]4(C)[C@]3(C)CC[C@@H]12` [Example 29, (2S,4aS,6aS,6bR,8aR,12aS,14aS,14bR)-11-cyano-N-(cyanomethyl)-14a-hydroxy-2,4a,6a,6b,9,9,12a-heptamethyl-10,14-dioxo-1,2,3,4,4a,5,6,6a,6b,7,8,8a,9,10,12a,14,14a,14b-octadecahydropicene-2-carboxamide] showed an IC50 of 16.9 nM.
